IC50 data for 14 compounds are collected here from patent US8389526B2, “3-heteroarylmethyl-imidazo[1,2-b]pyridazin-6-yl derivatives” (Novartis AG, priority 2009, dated 2013).

In assay [1] the test system is MET-amplified gastric cancer cell line GTL-16. In words: GTL-16 proliferation assay (MTS). The assay is classed as cell-based. Conditions: Homo sapiens, GTL-16 cells, 72 h incubation. An outline of the steps:
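GTL-16 cells were seeded at 3000/well in DMEM with 10% FCS. After 24 h they were treated in triplicate with a 10-point, 3-fold dilution series ([…]; DMSO-only control) for 72 h. Viable cells were measured by MTS, with OD 490 nm read after 30 min.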

For a further assay, the target named is T1, c-Met (Homo sapiens, UniProt P08581).
T1 construct: adapted to measure the phosphorylation of endogenous cellular proteins in cell lysates; endogenous in cells; host or cells: GTL-16
T1 sequence (P08581 25-1390): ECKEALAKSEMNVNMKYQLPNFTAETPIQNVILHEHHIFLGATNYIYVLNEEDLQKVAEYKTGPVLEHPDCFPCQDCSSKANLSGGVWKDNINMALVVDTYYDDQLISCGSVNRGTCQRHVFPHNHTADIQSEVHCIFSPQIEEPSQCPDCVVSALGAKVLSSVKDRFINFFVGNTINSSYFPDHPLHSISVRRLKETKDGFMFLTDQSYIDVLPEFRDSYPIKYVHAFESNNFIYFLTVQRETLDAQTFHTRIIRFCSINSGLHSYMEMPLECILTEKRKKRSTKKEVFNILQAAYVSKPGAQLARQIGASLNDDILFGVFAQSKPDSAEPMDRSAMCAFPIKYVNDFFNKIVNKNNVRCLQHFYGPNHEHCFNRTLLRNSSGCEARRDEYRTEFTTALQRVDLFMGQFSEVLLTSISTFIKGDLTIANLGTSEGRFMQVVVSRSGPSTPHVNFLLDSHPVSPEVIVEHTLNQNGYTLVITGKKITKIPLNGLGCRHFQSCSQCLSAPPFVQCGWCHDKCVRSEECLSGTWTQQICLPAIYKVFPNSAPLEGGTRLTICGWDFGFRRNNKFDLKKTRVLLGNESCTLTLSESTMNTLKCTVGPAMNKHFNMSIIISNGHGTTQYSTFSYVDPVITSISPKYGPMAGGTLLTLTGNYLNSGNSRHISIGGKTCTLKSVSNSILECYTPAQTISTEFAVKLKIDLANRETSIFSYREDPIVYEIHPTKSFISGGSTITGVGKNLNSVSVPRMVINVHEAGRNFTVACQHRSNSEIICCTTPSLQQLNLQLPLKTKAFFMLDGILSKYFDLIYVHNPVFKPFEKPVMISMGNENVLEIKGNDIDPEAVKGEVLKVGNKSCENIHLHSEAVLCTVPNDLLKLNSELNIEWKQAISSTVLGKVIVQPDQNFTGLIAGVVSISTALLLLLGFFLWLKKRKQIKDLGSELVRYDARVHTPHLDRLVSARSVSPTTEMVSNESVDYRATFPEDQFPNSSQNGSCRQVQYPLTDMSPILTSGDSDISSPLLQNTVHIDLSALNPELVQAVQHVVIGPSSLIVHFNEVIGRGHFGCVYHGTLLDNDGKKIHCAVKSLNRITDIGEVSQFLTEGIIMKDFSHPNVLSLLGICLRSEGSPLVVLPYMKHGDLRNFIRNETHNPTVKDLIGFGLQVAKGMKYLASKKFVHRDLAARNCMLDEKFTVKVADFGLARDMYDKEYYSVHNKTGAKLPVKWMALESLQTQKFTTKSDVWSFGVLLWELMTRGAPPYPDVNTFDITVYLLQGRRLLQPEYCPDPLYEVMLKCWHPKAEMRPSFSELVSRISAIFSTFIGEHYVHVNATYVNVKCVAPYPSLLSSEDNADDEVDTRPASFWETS
Briefly: GTL-16 c-Met autophosphorylation measured by AlphaScreen detection. Format: cell-based. The note with it: GTL-16 cells, 1 h incubation, AlphaScreen p-c-Met; read-out: GTL-16 IC50 c-Met phosphorylation. Summed up:
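GTL-16 MET-amplified gastric cancer cells, serum-free DMEM with 0.1% BSA, exposed to 8-point compound dilutions for 1 h at 37° C (0.11% DMSO final). Lysates probed for phospho-c-Met by AlphaScreen using anti-c-Met antibody, biotinylated PY20 phosphotyrosine antibody, Protein A acceptor and streptavidin donor beads.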
For orientation: Alpha assays give light when donor and acceptor beads are brought close together.

The target in assay [2] is T2, c-Met receptor tyrosine kinase, GST-c-Met(969-1390) (Homo sapiens, UniProt P08581).
T2 construct: made in house
T2 sequence (P08581 969-1390): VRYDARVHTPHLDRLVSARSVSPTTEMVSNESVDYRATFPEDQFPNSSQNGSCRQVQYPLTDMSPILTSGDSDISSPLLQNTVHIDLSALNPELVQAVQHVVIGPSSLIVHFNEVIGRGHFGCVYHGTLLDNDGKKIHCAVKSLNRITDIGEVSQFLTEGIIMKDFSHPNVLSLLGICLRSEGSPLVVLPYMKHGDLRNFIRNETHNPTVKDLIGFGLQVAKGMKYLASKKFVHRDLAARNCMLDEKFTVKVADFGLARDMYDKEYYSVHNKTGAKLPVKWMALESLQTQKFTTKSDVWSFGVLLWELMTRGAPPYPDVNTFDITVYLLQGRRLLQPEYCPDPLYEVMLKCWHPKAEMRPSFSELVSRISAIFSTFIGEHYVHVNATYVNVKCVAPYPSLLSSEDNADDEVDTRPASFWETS
Briefly: EPK c-Met profiling assay (LanthaScreen TR-FRET kinase assay). The assay is classed as biochemical. The note with it: 2 μM ATP, 0.3 nM enzyme, 60 minutes at room temperature. An outline of the steps:
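Recombinant GST-c-Met(969-1390) cytoplasmic domain, 0.3 nM, phosphorylating 50 nM Fluorescein-PolyEAY with 2 μM ATP, 10 mM MgCl2, 3 mM MnCl2, 60 min at room temperature. EDTA-stopped; phosphoproduct detected by TR-FRET with Tb-PY20 antibody, end-point read. Final compound 0.003-10 μM over 8 concentrations.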

The structures appear in SMILES notation.

Turning to `CN1CCN(c2ccc3ncc(Cc4c(F)cc5ncccc5c4F)n3n2)CC1=O` [Example 30, 4-[3-(5,7-Difluoro-quinolin-6-ylmethyl)-imidazo[1,2-b]pyridazin-6-yl]-1-methyl-piperazin-2-one], the IC50 is 37 nM in assay [1], below 3 nM on c-Met and 6.6 nM in assay [2].

Take `O=C1CN(c2ccc3ncc(Cc4c(F)cc5ncccc5c4F)n3n2)CCN1` [Example 31, 4-[3-(5,7-Difluoro-quinolin-6-ylmethyl)-imidazo[1,2-b]pyridazin-6-yl]-piperazin-2-one]: the figures for the 50% inhibitory concentration (IC50) (in assay [1]; on c-Met; in assay [2]) were 15 nM, 4.7 nM and 8.2 nM, respectively.

For `Fc1cc2ncccc2c(F)c1Cc1cnc2ccc(N3CCNCC3)nn12` [Example 32, 5,7-Difluoro-6-(6-piperazin-1-yl-imidazo[1,2-b]pyridazin-3-ylmethyl)-quinoline], the concentration for half-maximal inhibition (IC50) in assay [1] was 25 nM; at c-Met, below 3 nM; in assay [2] it was 7.4 nM.

`CN1CCN(c2ccc3ncc(Cc4c(F)cc5ncccc5c4F)n3n2)CC1` [Example 33, 5,7-Difluoro-6-[6-(4-methyl-piperazin-1-yl)-imidazo[1,2-b]pyridazin-3-ylmethyl]-quinoline]: the IC50 was 46 nM in assay [1], 9 nM at c-Met and 14 nM in assay [2].

Turning to `CC(=O)N1CCN(c2ccc3ncc(Cc4c(F)cc5ncccc5c4F)n3n2)CC1` [Example 34, 1-{4-[3-(5,7-Difluoro-quinolin-6-ylmethyl)-imidazo[1,2-b]pyridazin-6-yl]-piperazin-1-yl}-ethanone], the values for the IC50 (in assay [1]; on c-Met; in assay [2]) were 65 nM, 7 nM and 10 nM, respectively.

Turning to `O=CN1CCN(c2ccc3ncc(Cc4c(F)cc5ncccc5c4F)n3n2)CC1` [Example 35, 4-[3-(5,7-Difluoro-quinolin-6-ylmethyl)-imidazo[1,2-b]pyridazin-6-yl]-piperazine-1-carbaldehyde], the results for the concentration for half-maximal inhibition (IC50) (in assay [1]; on c-Met; in assay [2]) were 45 nM, 8 nM and 9.9 nM, respectively.

On to `COC(=O)N1CCN(c2ccc3ncc(Cc4c(F)cc5ncccc5c4F)n3n2)CC1` [Example 36, 4-[3-(5,7-Difluoro-quinolin-6-ylmethyl)-imidazo[1,2-b]pyridazin-6-yl]-piperazine-1-carboxylic acid methyl ester], for which the IC50 in assay [1] is 25 nM; at c-Met, below 3 nM; in assay [2] it was 11 nM.

Regarding `O=C1CN(c2ccc3ncc(Cc4ccc5ncccc5c4F)n3n2)CCN1` [Example 44, 4-[3-(5-Fluoro-quinolin-6-ylmethyl)-imidazo[1,2-b]pyridazin-6-yl]-piperazin-2-one], the IC50 in assay [1] was found to be 133 nM; on c-Met, 31 nM; in assay [2], 14 nM.

Consider `C[C@@H](c1c(F)cc2c(cnn2C)c1F)c1cnc2ccc(N3CCN(C)C(=O)C3)nn12` [Example 50, 4-{3-[(S)-1-(4,6-Difluoro-1-methyl-1H-indazol-5-yl)-ethyl]-imidazo[1,2-b]pyridazin-6-yl}-1-methyl-piperazin-2-one], for which the half-maximal inhibitory concentration (IC50) is 11 nM in assay [1], 2.7 nM on c-Met and 8.3 nM in assay [2].

`C[C@@H](c1c(F)cc2c(cnn2C)c1F)c1cnc2ccc(N3CCNC(=O)C3)nn12` [Example 52, 4-{3-[(S)-1-(4,6-Difluoro-1-methyl-1H-indazol-5-yl)-ethyl]-imidazo[1,2-b]pyridazin-6-yl}-piperazin-2-one]: the IC50 is 11 nM in assay [1], 2.2 nM at c-Met and below 3 nM in assay [2].

Regarding `CC(=O)N1CCN(c2ccc3ncc([C@@H](C)c4c(F)cc5c(cnn5C)c4F)n3n2)CC1` [Example 53, 1-(4-{3-[(S)-1-(4,6-Difluoro-1-methyl-1H-indazol-5-yl)-ethyl]-imidazo[1,2-b]pyridazin-6-yl}-piperazin-1-yl)-ethanone], the concentration for half-maximal inhibition (IC50) in assay [1] was determined as 22 nM; on c-Met, 4.4 nM; in assay [2], 5.2 nM.

On to `Cn1ncc2c(F)c(Cc3cnc4ccc(N5CCNC(=O)C5)nn34)c(F)cc21` [Example 54, 4-[3-(4,6-Difluoro-1-methyl-1H-indazol-5-ylmethyl)-imidazo[1,2-b]pyridazin-6-yl]-piperazin-2-one], for which the figures for the IC50 (in assay [1]; on c-Met; in assay [2]) were 36 nM, below 3 nM and 20 nM, respectively.

Regarding `C[C@@H](c1c(F)cc2ncccc2c1F)c1cnc2ccc(N3CCNC(=O)[C@H]3C)nn12` [Example 59, (R)-4-{3-[(S)-1-(5,7-Difluoro-quinolin-6-yl)-ethyl]-imidazo[1,2-b]pyridazin-6-yl}-3-methyl-piperazin-2-one], the concentration for half-maximal inhibition (IC50) in assay [1] was 5.6 nM; at c-Met, 3.6 nM; in assay [2], 3 nM.

As to `C[C@@H](c1c(F)cc2ncccc2c1F)c1cnc2ccc(N3CCNC(=O)[C@@H]3C)nn12` [Example 60, (S)-4-{3-[(S)-1-(5,7-Difluoro-quinolin-6-yl)-ethyl]-imidazo[1,2-b]pyridazin-6-yl}-3-methyl-piperazin-2-one], the IC50 was 4.8 nM in assay [1], 2.3 nM at c-Met and 2.6 nM in assay [2].

As a reminder, the IC50 is the concentration at which inhibition is half-maximal.
